Tested on: ACSS2
Test: ACSS2 expression in J-Lat A1 cells
Format: cell-based
Details: Na-Cro treatment
Excerpt: FIG. 3 is a series of graphs showing that suppression of acetyl-CoA synthetase 2 (ACSS2) enzyme disrupts crotonyl-CoA induced reactivation of latent HIV. Panel A illustrates that Na-Cro addition to J-Lat Al cells increased expression of ACSS2 enzyme. **, p<0.01 compared with control treatment. Panel B illustrates expression of ACSS2 after ACSS2 siRNA knockdown in TZM-bl HIV reporter cells. **, p<0.01 compared with control siRNA. Panel C illustrates knockdown of ACSS2 decreased Na-Cro-driven HIV transcription. *, p<0.05 compared with control siRNA. Panels D and E illustrate that pretreatment with ACSS2 inhibitor, AR12, dampens reactivation of latent HIV (see panel D) by inhibition of histone crotonylation (see panel E) at the HIV LTR. **, p<0.01 and ***, p<0.001, compared with control treatment. ##, p<0.01 and ###, p<0.001 compared with Na-Cro treatment.

## C/C=C/C(=O)[O-].[Na+] [Na-Cro, sodium crotonate]
  increase in ACSS2 expression: 70 fold

— US20230087766A1, “METHODS OF REACTIVATING LATENT HUMAN IMMUNODEFICIENCY VIRUS AND RELATED COMPOSITIONS” (priority 2017, published 2023)
